Reference: US6492337B1, “Galactosylceramide, glucosylceramide, lactosylceramide, and specific catchers therefor for use in the prophylaxis or therapy of prediabetes, diabetes and/or associated complication” (A+ Science AB, priority 1997, dated 2002)

What was measured:
[1] = system: NOD mouse model of type 1 diabetes; test: Intrathymic injection in NOD mice, later diabetes incidence; type: in vivo
Experimental: The NOD mouse model is an animal model of type 1 diabetes. The mice develop spontaneously diabetes within 200 days of life with an incidence of 50% or more. In the present study the animals were examined daily and once a week checked for glucosuria. They were diagnosed as diabetic if their blood glucose values was higher than 200 mg glucose per 100 ml. When diagnosed as diabetics the animals were sacrificed. Otherwise the remaining non-diabetic animals were sacrificed at the end 5 of the study after 200 days of age.
Four groups of animals each containing between 30 and 40 animals were investigated: The animals were injected intrathymically when 3 weeks old. There was injected […] galactosylceramide in 100 μl vehicle (PBS). The control mice were treated with the 100 μl PBS alone. In another experiment liposome preparation of galactosylceramide was made using phosphatidylcholin and galactosylceramide. The control group was treated with phosphatidylcholin and PBS alone.

[2] = system: human mononuclear cells (monocytes and T-cells); conditions: compared to incubation with LPS and PHA without galactosylceramide; cited from earlier work

Substance: galactosylceramide
- mice that developed diabetes, two studies together ([1]; both studies pooled, 31 of 70 mice, PBS mice 57.4%): 44.3%
- time of diabetes development versus control mice ([1]; first study, pure form): occurred later than among the control mice
- mice that developed diabetes ([1]; first study, pure form in PBS, intrathymic injection at 3 weeks old, followed to 200 days of age, 17 of 37 mice, PBS control 56.8%): 45.9%
- IL-6 production [2]: increased
- TNF production [2]: increased
